Measured values as given in paper PMC4052943 (BioMed Research International, 2014).
Several values for one entry are separate records, joined by “and”; a condition that tells them apart may be missing. Equal values may be shown once. Read-outs that look alike come from different tables or passages of the source.

Assays:
[1] = system: Salmonella typhimurium TA97a; settings: TA 97a, no S9
Protocol: (§1) In the preincubation experiment, test compounds and mutagen, each having a volume of 0.1 mL of varying concentrations, were preincubated at 37°C for 30 min and then 0.1 mL of 1 × 10^7 CFU/mL density of the bacterial culture was added, followed by the addition of 2.5 mL of top agar at 45°C (containing 0.5% NaCl and 0.6% agar) supplemented with 0.5 mM histidine-biotin. […] The combined solutions were vortexed and poured onto minimal glucose plates (40% glucose solution and Vogel Bonner medium). The plates were incubated at 37°C for 48 h and the numbers of histidine-independent revertants colonies were scored.
(§2) Survival of the bacteria was routinely monitored for each experiment. Parallel controls were run with compounds alone at all concentrations to test the possible toxicity. The concentrations of the test samples for investigating the antimutagenicity were 50, 100, 200, and 500 μM. […] All the test samples and mutagens were dissolved in DMSO (final conc., 0.01%). […] Plates were set up in triplicate for each concentration and the entire experiment was repeated three times. Inhibition of mutagenicity was expressed as percentage decrease of reverse mutation and calculated as (1) Percent inhibition=[(a−b)/(a−c)]×100, where a = number of histidine revertants induced by mutagen, b = number of histidine revertants induced by mutagen in the presence of test compound, and c = number of revertants induced in negative control.

[2] = system: Salmonella typhimurium TA98; settings: TA 98, no S9
Protocol: as §1, §2

[3] = system: Salmonella typhimurium TA100; settings: TA 100, no S9
Protocol: as §1, §2

[4] = system: Salmonella typhimurium TA102; settings: TA 102, no S9
Protocol: as §1, §2

[5] = positive control MMS 1.5 μg (Table 8)

Compound | Number of His+ revertants colonies/plate ([1]; positive control MMS 1.0 μg) | Number of His+ revertants colonies/plate [1, 5] | Number of His+ revertants colonies/plate ([2]; positive control MMS 1.0 μg) | Number of His+ revertants colonies/plate [2, 5] | Number of His+ revertants colonies/plate ([3]; positive control MMS 1.0 μg) | Number of His+ revertants colonies/plate [3, 5] | Number of His+ revertants colonies/plate ([4]; positive control MMS 1.0 μg) | Number of His+ revertants colonies/plate [4, 5] | Number of His+ revertants colonies/plate ([1]; positive control NaN3 1.5 μg) | Number of His+ revertants colonies/plate ([2]; positive control NaN3 1.5 μg) | Number of His+ revertants colonies/plate ([3]; positive control NaN3 1.5 μg) | Number of His+ revertants colonies/plate ([4]; positive control NaN3 1.5 μg)
COS(C)(=O)=O [MMS, Methyl methanesulfonate, reference compound] | 449 colonies/plate and 449.7 ± 7.2 colonies/plate | 449.7 ± 7.2 colonies/plate | 53.7 ± 1.5 colonies/plate | 53.7 ± 1.5 colonies/plate | 963.0 ± 11.4 colonies/plate | 963.0 ± 11.4 colonies/plate | 1237.0 ± 14.5 colonies/plate | 1237.0 ± 14.5 colonies/plate | – | – | – | –
[N-]=[N+]=[N-].[Na+] [NaN3, Sodium azide, reference compound] | – | – | – | – | – | – | – | – | 256.0 ± 11.7 colonies/plate | 52.3 ± 1.8 colonies/plate | 361.3 ± 11.0 colonies/plate | 370.0 ± 9.0 colonies/plate and 355.0 ± 15.5 colonies/plate
